Experiments:
[1] = target: T1, γ1 subunit containing GABAA receptors (Rattus norvegicus, UniProt P15431+P62813); assay: Control of γ1 subunit incorporation with triazolam; type: cell-based; conditions: 10 µM
T1 construct: expressed in transfected cells; host or cells: Xenopus laevis oocytes, mRNA injected
Experimental: (§1) For electrophysiological recordings, oocytes were placed on a nylon-grid in a bath of Ca^2+-containing NDE solution medium [96 mM NaCl, 5 mM HEPES-NaOH (pH 7.5), 2 mM KCl, 1 mM MgCl2, 1.8 mM CaCl2]. For current measurements the oocytes were impaled with two microelectrodes (1–3 MΩ resistance) filled with 2 M KCl. […] The EC3–5 was determined at the beginning of each experiment. Drugs were diluted into NDE from DMSO-solutions resulting in a final concentration of 0.1% DMSO perfusing the oocytes. […] Between two applications, oocytes were washed in NDE for up to 15 min to ensure full recovery from desensitization. […] All recordings were performed at room temperature at a holding potential of […] using a Dagan TEV-200A two-electrode voltage clamp (Dagan Corporation, Mineapolis, MN). Data were digitized, recorded and measured using an Axon Digidata- 1550 low-noise data acquisition system (Axon Instruments, Union City, CA).

[2] = system: δ subunit containing GABAA receptors; assay: Control of δ subunit incorporation with DS2; type: cell-based, rat; conditions: 1 µM
Experimental: as §1, with “desensitization. Maximum currents measured in mRNA injected oocytes were in the microampere range for all subtypes of GABAA receptors. […] In order to monitor receptor composition, diazepam (~200% modulation at 1 µM) was used to investigate the incorporation of the γ2[25] subunit, DS2 (>800% modulation at 1 µM) for the incorporation of the δ subunit and triazolam (>200% modulation at 10 µM) for the γ1 incorporation.” for “desensitization.”, “CA). […]” for “CA).”

[3] = target: benzodiazepine binding site, rat cerebellum membranes; assay: [3H]flunitrazepam saturation binding, rat cerebellar membranes; conditions: n = 3, read-out: equilibrium binding constant KD
Experimental: In brief, membrane pellets were incubated for 90 min at 4 °C in a total of 500 µL of a solution containing 50 mM Tris/citrate buffer, pH = 7.1, 150 mM NaCl and 2 nM [^3H]flunitrazepam in the absence or presence of either 5 µM diazepam (to determine unspecific binding) or various concentrations of receptor ligands (dissolved in DMSO, final DMSO-concentration 0.5%). Membranes were filtered through Whatman GF/B filters and washed twice with 4 mL of ice-cold 50 mM Tris/citrate buffer. Filters were transferred to scintillation vials and subjected to scintillation counting after the addition of 3 mL Rotiszint Eco plus liquid scintillation cocktail. Nonlinear regression analysis of the displacement curves used the equation: log(inhibitor) vs. response - variable slope with Top = 100% and Bottom = 0% Y = 100/(1 + 10^((logIC50-x)*Hillslope)).

T1 sequence (P62813 28-455): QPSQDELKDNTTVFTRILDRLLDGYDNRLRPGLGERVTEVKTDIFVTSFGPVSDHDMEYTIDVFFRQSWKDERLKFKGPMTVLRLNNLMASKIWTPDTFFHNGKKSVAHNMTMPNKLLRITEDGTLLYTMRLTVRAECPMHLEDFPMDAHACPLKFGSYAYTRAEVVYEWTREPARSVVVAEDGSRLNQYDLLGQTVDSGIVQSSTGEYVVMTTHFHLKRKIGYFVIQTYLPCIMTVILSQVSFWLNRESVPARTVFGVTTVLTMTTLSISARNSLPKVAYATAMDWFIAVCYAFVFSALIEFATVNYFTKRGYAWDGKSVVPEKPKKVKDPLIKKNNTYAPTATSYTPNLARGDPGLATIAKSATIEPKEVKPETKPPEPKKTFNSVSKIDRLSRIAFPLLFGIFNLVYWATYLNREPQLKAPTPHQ
T1 sequence (P15431 26-474): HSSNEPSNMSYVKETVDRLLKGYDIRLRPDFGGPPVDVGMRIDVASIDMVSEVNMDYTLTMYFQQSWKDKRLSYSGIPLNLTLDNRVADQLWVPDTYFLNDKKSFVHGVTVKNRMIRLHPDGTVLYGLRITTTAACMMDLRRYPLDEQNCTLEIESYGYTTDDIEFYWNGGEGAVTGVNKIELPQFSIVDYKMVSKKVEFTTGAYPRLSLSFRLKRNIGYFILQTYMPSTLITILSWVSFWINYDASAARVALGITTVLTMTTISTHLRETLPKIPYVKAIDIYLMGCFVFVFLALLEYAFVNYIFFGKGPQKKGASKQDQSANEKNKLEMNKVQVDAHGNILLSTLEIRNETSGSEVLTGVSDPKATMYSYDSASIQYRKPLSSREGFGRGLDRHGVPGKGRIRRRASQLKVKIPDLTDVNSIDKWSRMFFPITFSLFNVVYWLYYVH
T1 sequence (P23574 36-465 partner limits assumed): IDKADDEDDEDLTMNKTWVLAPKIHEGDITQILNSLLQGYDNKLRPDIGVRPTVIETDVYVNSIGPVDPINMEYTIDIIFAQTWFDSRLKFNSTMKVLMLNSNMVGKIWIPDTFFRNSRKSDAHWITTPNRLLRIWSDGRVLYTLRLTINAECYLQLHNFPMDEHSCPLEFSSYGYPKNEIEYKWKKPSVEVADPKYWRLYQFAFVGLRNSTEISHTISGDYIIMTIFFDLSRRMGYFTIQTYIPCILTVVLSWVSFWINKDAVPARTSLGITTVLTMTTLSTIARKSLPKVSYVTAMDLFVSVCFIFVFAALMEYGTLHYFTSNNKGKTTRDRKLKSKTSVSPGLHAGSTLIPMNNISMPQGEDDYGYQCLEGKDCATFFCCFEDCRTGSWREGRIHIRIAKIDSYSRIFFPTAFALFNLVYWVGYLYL

Compound: Cc1nnc2n1-c1ccc(Cl)cc1C(c1ccccc1Cl)=NC2 [triazolam, Triazolam]
- modulation [1]: > 200%

Compound: O=C(Nc1c(-c2cccs2)nc2ccccn12)c1ccc(Cl)cc1 [DS2]
- modulation [2]: > 800%

Compound: CN1C(=O)CN=C(c2ccccc2F)c2cc([N+](=O)[O-])ccc21 [[^3H]flunitrazepam]
- Kd [3]: 4.8 ± 0.3 nM

Source: PMC5516028, “Molecular tools for GABAA receptors: High affinity ligands for β1-containing subtypes” (Scientific Reports, 2017)
